According to patent publication US9435795B2, “Enhanced deposition of chromogens utilizing pyrimidine analogs” (Ventana Medical Systems, Inc., priority 2010, dated 2016):
Converted amounts (≈) assume the structure as drawn. “And” between values parts separate entries of the source, which are not always exact repeats. Identical values can stand only once. Like-named read-outs stand apart in the source and are kept apart here.

Legend:
ultraView HRP multimer = target: T1, ultraView HRP multimer (Armoracia rusticana, UniProt P00433); assay: Michaelis-Menten kinetics of HRP-oxidized DAB with enhanced DAB chromogen mixtures; assay type: biochemical, horseradish
T1 construct: purchased Ventana Medical Systems (ultraView kit component)
T1 sequence (P00433 31-338 limits assumed): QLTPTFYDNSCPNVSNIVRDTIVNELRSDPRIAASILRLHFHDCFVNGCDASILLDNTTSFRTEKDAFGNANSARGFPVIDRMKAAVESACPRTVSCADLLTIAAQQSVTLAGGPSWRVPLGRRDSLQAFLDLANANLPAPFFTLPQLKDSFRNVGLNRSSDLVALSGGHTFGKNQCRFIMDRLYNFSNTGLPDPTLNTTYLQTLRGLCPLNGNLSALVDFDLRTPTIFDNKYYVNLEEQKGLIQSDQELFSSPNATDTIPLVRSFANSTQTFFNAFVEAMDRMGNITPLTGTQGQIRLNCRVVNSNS
Experimental: To further study the synergistic effect in the increased apparent Vmax for HRP-oxidized DAB, Michaelis-Menten kinetics were calculated for the best enhanced DAB chromogen mixtures in Table 3. […] The definition of Vmax=kcat·[E]total when the enzyme substrate concentration was at saturation levels. When the concentration of enzyme was kept constant, the apparent Vmax is proportional to kcat (the apparent turnover for HRP or the first order rate constant).

[1] = target: T2, horseradish peroxidase (HRP) (Armoracia rusticana, UniProt P00433); assay: Plate assay: kinetic screening of enhancers of HRP-mediated DAB oxidation (ultraView Detection Kit, OD 455 nm); assay type: biochemical; conditions: for Percent increase of apparent Vmax of HRP: relative to uView Vmax without enhancement
T2 construct: purchased VMSI (Ventana Medical Systems, Inc.) 760-500: 253-4290, 253-4292 and 253-4293
Experimental: The additives were directly added to a well containing the necessary reagents from the ultraView™ Detection Kit (VMSI 760-500: 253-4290, 253-4292 and 253-4293) in 1× Reaction Buffer (VMSI 950-300) and 0.1% fish gelatin. Fish gelatin was used to help disperse the oxidized DAB and inhibit its precipitation from solution. The ultraView™ Detection Kit was diluted to measure the formation of oxidized DAB by UV-VIS at 455 nm. Additives were tested at set concentrations to determine enhancement in the DAB oxidation reaction. The data were graphed, and the apparent maximum velocity (Vmax) was calculated at each additive concentration level.

[2] = Compatibility and stability of reformulated DAB Chromogen solution with additive; assay type: physicochemical
bcl2 on tonsil tissue = assay: IHC staining of bcl2 on tonsil tissue with enhanced DAB chromogen solutions, pathology scoring; conditions: additive in DAB chromogen solution
Experimental: IHC staining was performed for bcl2 on tonsil tissue using enhanced DAB chromogen solutions to further examine enhancer synergistic effects on DAB deposition. Reader 1 performed all pathology evaluations during the same period of time.
Formalin fixed paraffin embedded tonsil tissue was mounted on Superfrost slides, deparaffinized and antigen retrieved using CC1 bulk reagent (Ventana® p/n 950-124). Following retrieval, one drop (100 μL) of UV Inhibitor (a component of the ultraView™ DAB kit) was dispensed onto a slide and incubated for 8 minutes. Following the incubation of the Inhibitor, 1 drop of the mouse anti-bcl2 (clone 124; Ventana® p/n 790-4464) was dispensed onto the slide and incubated for 16 minutes. Following 2 rinses with reaction buffer, the bcl2 antibody was detected using 1 drop of the ultraView™ universal HRP conjugate (a component of the ultraView™ DAB kit) and incubated on the slide for 8 minutes. One drop of DAB (5.5 mM DAB; 0.05% Brij® 35; plus any combination of enhancers investigated in table 3) and H2O2 were each added to the slides and incubated for 8 minutes. ultraView™ DAB was used as the reference. After rinsing the slides in reaction buffer, 100 μL of copper (component of ultraView™ DAB kit) was applied to slide for 4 minutes. Slides were counterstained using Hematoxylin II (Ventana® p/n 790-2208) and Bluing Reagent (Ventana p/n760-2037). […]

[3] = Solubility of additive in reaction buffer / aqueous buffers; assay type: physicochemical; conditions: for solubility: reaction buffer, aqueous buffer, read-out: Solubility of additive in reaction buffer at room temperature
bcl2 in tonsil tissue = assay: TSA-IHC tissue staining of bcl2 in tonsil tissue (TA-HQ deposition); conditions: 10 mM during tyramide deposition; 8 minute primary Ab incubation
Experimental: Enhanced DAB deposition was evaluated on a TSA-IHC tissue staining of bcl2 in tonsil tissue. […] Tyramide deposition was performed with and without 10 mM 2-hydroxypyrimidine. […] The percent of cells stained with DAB increased in areas with low bcl2 antigen expression. Formalin fixed paraffin embedded tonsil tissue was mounted on Superfrost slides, deparaffinized and antigen retrieved using CC1 bulk reagent (Ventana® p/n 950-124). […] Slides were counterstained using Hematoxylin II (Ventana® p/n 790-2208) and Bluing Reagent (Ventana® p/n760-2037). The slides were dehydrated using gradient alcohols, cover slipped and viewed using a bright field microscope (FIGS. 23-26).

[4] = target: T2, horseradish peroxidase (HRP); assay: Plate assay: enhancers added sequentially to ultraView Detection Kit (synergistic/antagonistic effects); assay type: biochemical; conditions: for Effect on apparent velocity of HRP when added to a preceding assay mixture of Table 2: NMO added to mixture 4, 50 mM L-histidine or 10 mM pyrimidine added to mixture 5
Experimental: The same concentration of reagents from the ultraView™ Detection Kit (VMSI 760-500: 253-4290, 253-4292 and 253-4293) were used in 1× Reaction Buffer™ containing 0.1% fish gelatin for each trial. In each trial, the enhancers were added together one at a time.

[5] = enhancer 10 mM in 50 mM imidazole, 10 mM calcium chloride, 10 mM boric acid
[6] = enhancer 10 mM, no enhancer 18.50
[7] = enhancer 50 mM, no enhancer 18.50, (sat) = reaction rate saturated by start of UV-VIS analysis
[8] = enhancer 100 mM, no enhancer 18.50, (sat) = reaction rate saturated by start of UV-VIS analysis

| Compound | Vmax (apparent, HRP-oxidized DAB) [1, 6] [mOD/min] | Vmax (apparent, HRP-oxidized DAB) [1, 7] | Vmax (apparent, HRP-oxidized DAB) [1, 8] | Enhancement of apparent velocity of HRP-mediated DAB oxidation (in words) [1] | also measured |
| --- | --- | --- | --- | --- | --- |
| Oc1ccccn1 [2-Hydroxypyridine] | 47.67 | 18.19 mOD/min | 15.98 mOD/min | – | Vmax (ultraView HRP multimer; [5]): 383 mOD/min; Percent increase of apparent Vmax of HRP ([1]; enhancer 10 mM): 157% |
| OB(O)O [Boric Acid] | 67.47 | – | – | – | Percent increase of apparent Vmax of HRP ([1]; enhancer 10 mM): 265%; Percent increase of apparent Vmax of HRP ([1]; enhancer 50 mM): 592% |
| CC1(C)CCCC(C)(C)N1[O] [TEMPO, 2,2,6,6-tetramethylpiperidine-1-oxyl] | – | – | – | – | Vmax (apparent, HRP-oxidized DAB) ([1]; enhancer 0.13% (8 mM)): 18.00 mOD/min; Vmax (apparent, HRP-oxidized DAB) ([1]; enhancer 0.25% (16 mM)): 24.80 mOD/min; Vmax (apparent, HRP-oxidized DAB) ([1]; enhancer 0.50% (32 mM)): 21.20 mOD/min |
| N[C@@H](Cc1c[nH]c2ccccc12)C(=O)O [L-Tryptophan] | 30.00 | 52.00 mOD/min | 64.00 mOD/min | – | – |
| O=C1CC(=O)NC(=S)N1 [2-Thiobarbituric Acid] | 54.00 | 56.00 mOD/min | 76.00 mOD/min | – | – |
| Oc1ncccn1 [2-Hydroxypyrimidine] | 144.00 | 156.00 mOD/min | 148.00 mOD/min | – | Vmax (ultraView HRP multimer; [5]): 320 mOD/min; Tyramide deposition in TSA-IHC staining (in words) (bcl2 in tonsil tissue): increased the tyramide deposition; Solubility in aqueous buffers (in words) [3]: do not have solubility or volatility problems |
| O=c1cc[nH]c(=O)[nH]1 [Uracil] | 52.00 | 72.00 mOD/min | – | increased the apparent velocity of HRP | Solubility in aqueous buffers (in words) [3]: solubility problems in aqueous buffers; solubility ([3]; additive 50 mM): 10 to 50 mM (≈ 1120 to 5600 µg/mL); solubility ([3]; additive 100 mM): 10 to 100 mM (≈ 1120 to 11200 µg/mL) |
| c1ccc2c(c1)Nc1ccccc1S2 [phenothiazine] | – | – | – | no enhancement | – |
| [Ca+2].[Cl-].[Cl-] [Calcium Chloride] | – | – | – | – | Vmax (apparent, HRP-oxidized DAB) [1]: 43.50 mOD/min and 52.50 mOD/min and 57.00 mOD/min |
| C[N+]1([O-])CCOCC1 [NMO, 4-methyl-morpholine N-oxide] | – | – | – | – | Effect on apparent velocity of HRP when added to a preceding assay mixture of Table 2 [4]: antagonistic effect; Vmax (apparent, HRP-oxidized DAB) ([1]; enhancer 0.13% (10.7 mM)): 33.60 mOD/min; Vmax (apparent, HRP-oxidized DAB) ([1]; enhancer 0.25% (21.3 mM)): 43.60 mOD/min; Vmax (apparent, HRP-oxidized DAB) ([1]; enhancer 0.50% (42.7 mM)): 51.60 mOD/min |
| c1ccc2[nH]cnc2c1 [Benzimidazole] | – | – | – | no enhancement | – |
| CN(C)c1ccncc1 [4-dimethylaminopyridine] | – | – | – | no enhancement | – |
| CC(=O)Nc1ccc(B(O)O)cc1 [4-AcHNPhB(OH)2, 4-acetylamidophenyl boronic acid] | 32.80 | – | – | – | Vmax (apparent, HRP-oxidized DAB) ([1]; enhancer 5 mM, no enhancer 18.50): 21.20 mOD/min; Percent increase of apparent Vmax of HRP ([1]; enhancer 10 mM): 77%; Vmax (apparent, HRP-oxidized DAB) ([1]; enhancer 20 mM, no enhancer 18.50): 32.00 mOD/min |
| c1cocn1 [Oxazole] | 24.00 | 40.00 mOD/min | 18.00 (sat) mOD/min | – | – |

More lines, main results first:

| Vmax (apparent, HRP-oxidized DAB) [1, 6] [mOD/min] | Vmax (apparent, HRP-oxidized DAB) [1, 7] | Vmax (apparent, HRP-oxidized DAB) [1, 8] | Enhancement of apparent velocity of HRP-mediated DAB oxidation (in words) [1] | Compound | also measured |
| --- | --- | --- | --- | --- | --- |
| 104.00 | 104.00 mOD/min | 36.00 mOD/min | – | [O-][n+]1cccnc1 [Pyrimidine-N-oxide] | Vmax (ultraView HRP multimer; [5]): 374 mOD/min; Functionality over time of DAB reformulated with additive [2]: lost functionality and stopped staining with time; DAB staining on tissue, pathological review (in words) (bcl2 on tonsil tissue): best DAB signal to background noise ratio for the two enhancers; Solubility in aqueous buffers (in words) [3]: do not have solubility or volatility problems |
| – | – | – | no enhancement | CN(C)c1ccc2nc3ccc(=[N+](C)C)cc-3sc2c1 [methylene blue] | – |
| 104.00 | 124.00 mOD/min | 36.80 (sat) mOD/min | – | c1cncnc1 [Pyrimidine] | Effect on apparent velocity of HRP when added to a preceding assay mixture of Table 2 [4]: increased the apparent velocity of HRP; Vmax (ultraView HRP multimer; enhancer 50 mM in 50 mM imidazole, 10 mM calcium chloride, 10 mM boric acid): 326 mOD/min; Percent increase of apparent Vmax of HRP ([1]; enhancer 10 mM): 462%; Percent increase of apparent Vmax of HRP ([1]; enhancer 50 mM): 570% |
| 82.00 | 86.00 mOD/min | 74.00 mOD/min | increased the apparent velocity of HRP | Cc1c[nH]c(=O)[nH]c1=O [Thymine] | – |
| 66.40 | 27.00 (sat) mOD/min | 27.05 (sat) mOD/min | – | c1cscn1 [Thiazole] | – |
| 36.00 | 66.00 mOD/min | – | increased the apparent velocity of HRP | Nc1cc[nH]c(=O)n1 [Cytosine] | Solubility in aqueous buffers (in words) [3]: solubility problems in aqueous buffers; solubility ([3]; additive 50 mM): 10 to 50 mM (≈ 1110 to 5560 µg/mL); solubility ([3]; additive 100 mM): 10 to 100 mM (≈ 1110 to 11100 µg/mL) |
| 28.80 | – | – | – | c1c[nH]cn1 [Imidazole] | Vmax (apparent, HRP-oxidized DAB), enhancers added sequentially ([4]; no enhancement 18.50): 34.00 mOD/min; Vmax (ultraView HRP multimer; 10 mM buffer salt with 10 mM pyrimidine, no enhancer 228): 330 mOD/min; Vmax (ultraView HRP multimer; 50 mM buffer salt with 10 mM 2-hydroxypyrimidine (FIG. 19: also 10 mM boric acid, 10 mM calcium chloride)): 320 mOD/min; Precipitation of DAB from reformulated DAB Chromogen solution ([2]; higher concentrations of imidazole, 50 mM L-histidine): causing DAB to precipitate; Percent increase of apparent Vmax of HRP ([1]; enhancer 10 mM): 56%; DAB staining on tissue, pathological review (in words) (bcl2 on tonsil tissue): significantly increased the DAB staining intensity |
